Laboratory results as given in ChEMBL document CHEMBL5032500, “Adenosine A2AR/A1R Antagonists Enabling Additional H3R Antagonism for the Treatment of Parkinson's Disease” (J Med Chem, 2021).

How the values were obtained:
Adenosine receptor A1 [1] = target: T1, Adenosine receptor A1 (Homo sapiens, UniProt P30542); experiment: Displacement of [3H]CCPA from human recombinant adenosine A1 receptor expressed in CHO cells by liquid scintillation counting analysis; format: cell-based
T1 sequence (P30542 whole entry): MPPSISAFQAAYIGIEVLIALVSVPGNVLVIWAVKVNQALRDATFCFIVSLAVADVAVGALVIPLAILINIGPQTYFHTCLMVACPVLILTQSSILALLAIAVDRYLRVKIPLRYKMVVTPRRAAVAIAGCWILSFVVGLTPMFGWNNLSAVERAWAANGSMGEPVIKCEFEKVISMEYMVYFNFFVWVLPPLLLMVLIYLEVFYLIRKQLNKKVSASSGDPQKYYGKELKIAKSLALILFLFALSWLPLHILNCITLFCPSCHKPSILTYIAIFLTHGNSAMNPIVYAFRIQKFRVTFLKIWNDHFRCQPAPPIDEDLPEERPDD

Adenosine receptor A2a [2] = target: T2, Adenosine receptor A2a (Homo sapiens, UniProt P29274); experiment: Displacement of [3H]MSX-2 from human recombinant adenosine A2A receptor expressed in CHO cells by liquid scintillation counting analysis; format: cell-based
Adenosine receptor A2b [3] = target: T3, Adenosine receptor A2b (Homo sapiens, UniProt P29275); experiment: Displacement of [3H]PSB-603 from human recombinant adenosine A2B receptor expressed in CHO cells by liquid scintillation counting analysis; format: cell-based
T3 sequence (P29275 whole entry): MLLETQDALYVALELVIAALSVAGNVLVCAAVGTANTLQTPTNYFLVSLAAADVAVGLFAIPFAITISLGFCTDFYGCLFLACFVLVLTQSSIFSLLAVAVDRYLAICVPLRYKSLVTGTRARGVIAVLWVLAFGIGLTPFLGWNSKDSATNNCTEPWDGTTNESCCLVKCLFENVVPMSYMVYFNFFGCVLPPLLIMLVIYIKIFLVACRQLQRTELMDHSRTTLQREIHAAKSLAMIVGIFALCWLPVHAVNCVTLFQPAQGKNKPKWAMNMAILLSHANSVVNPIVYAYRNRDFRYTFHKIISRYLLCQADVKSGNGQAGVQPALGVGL

Adenosine receptor A3 = target: T4, Adenosine receptor A3 (Homo sapiens, UniProt P0DMS8); experiment: Displacement of [3H]PSB-11 from human recombinant adenosine A3 receptor expressed in CHO cells by liquid scintillation counting analysis; format: cell-based
T4 sequence (P0DMS8 whole entry): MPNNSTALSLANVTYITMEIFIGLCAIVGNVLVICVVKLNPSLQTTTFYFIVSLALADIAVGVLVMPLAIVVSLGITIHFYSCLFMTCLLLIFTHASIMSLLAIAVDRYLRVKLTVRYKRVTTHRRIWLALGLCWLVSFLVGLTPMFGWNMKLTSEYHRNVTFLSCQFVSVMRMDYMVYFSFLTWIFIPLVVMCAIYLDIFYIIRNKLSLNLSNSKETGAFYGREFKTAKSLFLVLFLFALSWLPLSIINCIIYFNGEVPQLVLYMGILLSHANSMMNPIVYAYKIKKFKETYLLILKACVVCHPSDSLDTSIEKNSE

Histamine H3 receptor = Histamine H3 receptor (Homo sapiens, UniProt Q9Y5N1); experiment: Displacement of [3H] N-alpha methylhistamine from human recombinant histamine H3 receptor expressed in HEK293 cells measured after 90 mins; format: cell-based
[4] = target: T5, Adenosine receptor A1 (Homo sapiens) (UniProt P30542); experiment: Displacement of [3H]CCPA from human recombinant adenosine A1 receptor expressed in CHO cells at 1 uM by liquid scintillation counting analysis; format: cell-based
T5 sequence (whole entry): T1 sequence (P30542 whole entry)

[5] = target: T6, Adenosine receptor A2b (Homo sapiens) (UniProt P29275); experiment: Displacement of [3H]PSB-603 from human recombinant adenosine A2B receptor expressed in CHO cells at 1 uM by liquid scintillation counting analysis; format: cell-based
T6 sequence (whole entry): T3 sequence (P29275 whole entry)

[6] = target: T7, Adenosine receptor A3 (Homo sapiens) (UniProt P0DMS8); experiment: Displacement of [3H]PSB-11 from human recombinant adenosine A3 receptor expressed in CHO cells at 1 uM by liquid scintillation counting analysis; format: cell-based
T7 sequence (whole entry): T4 sequence (P0DMS8 whole entry)

Adenosine receptor A2a [7] = target: T2, Adenosine receptor A2a; experiment: Displacement of [3H]MSX-2 from human recombinant adenosine A2A receptor expressed in CHO cells at 1 uM by liquid scintillation counting analysis; format: cell-based
SH-SY5Y = experiment: Cytotoxicity against human SH-SY5Y cells assessed as remaining cell viability at 1000 nM incubated for 24 hrs; format: functional
Adenosine receptor A1 [8] = target: T1, Adenosine receptor A1; experiment: Binding affinity to human recombinant adenosine A1 receptor expressed in CHO cells using [3H]CCPA by functional activity assay; format: cell-based
Adenosine receptor A2b [9] = target: T3, Adenosine receptor A2b; experiment: Binding affinity to human recombinant adenosine A2B receptor expressed in CHO cells using [3H]PSB-603 by functional activity assay; format: cell-based

Histamine H3 receptor, sequence (Q9Y5N1 whole entry): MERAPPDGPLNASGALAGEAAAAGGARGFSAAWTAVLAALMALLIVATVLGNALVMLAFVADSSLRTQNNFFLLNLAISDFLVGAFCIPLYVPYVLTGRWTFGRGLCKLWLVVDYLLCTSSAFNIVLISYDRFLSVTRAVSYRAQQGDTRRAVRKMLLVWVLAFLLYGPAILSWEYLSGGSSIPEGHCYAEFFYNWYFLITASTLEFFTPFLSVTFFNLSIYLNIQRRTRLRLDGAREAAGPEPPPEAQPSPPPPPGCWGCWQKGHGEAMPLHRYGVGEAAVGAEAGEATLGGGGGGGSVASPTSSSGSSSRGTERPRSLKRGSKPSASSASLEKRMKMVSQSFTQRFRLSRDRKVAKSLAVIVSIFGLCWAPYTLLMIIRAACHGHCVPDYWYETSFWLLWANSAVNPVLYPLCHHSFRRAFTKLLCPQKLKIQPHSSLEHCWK
T2 sequence (P29274 whole entry): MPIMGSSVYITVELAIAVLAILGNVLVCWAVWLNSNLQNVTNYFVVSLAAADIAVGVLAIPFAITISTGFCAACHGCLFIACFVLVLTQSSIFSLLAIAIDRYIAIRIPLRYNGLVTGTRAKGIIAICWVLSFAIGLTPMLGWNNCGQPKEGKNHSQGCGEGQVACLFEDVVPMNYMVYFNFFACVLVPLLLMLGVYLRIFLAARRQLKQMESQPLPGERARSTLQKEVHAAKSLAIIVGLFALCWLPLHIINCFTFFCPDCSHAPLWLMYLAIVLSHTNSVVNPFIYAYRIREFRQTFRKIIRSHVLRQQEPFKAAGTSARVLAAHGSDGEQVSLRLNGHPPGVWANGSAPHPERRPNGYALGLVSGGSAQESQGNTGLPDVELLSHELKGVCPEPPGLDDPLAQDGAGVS

Row | SMILES | Ki (Adenosine receptor A1 [1]) [nM] | Ki (Adenosine receptor A2a [2]) [nM] | Ki (Adenosine receptor A2b [3]) [nM] | Ki (Adenosine receptor A3) [nM] | Ki (Histamine H3 receptor) [nM] | inhibition ([4]; filed as antagonist) [%] | inhibition [5] [%] | inhibition [6] [%] | inhibition [4] [%] | inhibition (Adenosine receptor A2a [7]) [%] | EC50 (Adenosine receptor A1 [8]) [nM] | EC50 (Adenosine receptor A2b [9]) [nM] | Activity (SH-SY5Y) [%]
1 | COCCOc1ccc(N2CCN(CCn3ncc4c3nc(N)n3nc(-c5ccco5)nc43)CC2)cc1 [PRELADENANT] | – | – | > 1000 | > 1000 | – | – | – | – | – | – | – | – | –
2 | Nc1nc(-c2ccc(OCCCN3CCCCC3)cc2)c2c(n1)-c1ccc(OCCCN3CCCCC3)cc1C2=O | ≥ 1000 | 203 | > 1000 | > 1000 | 0.31 | 44 | 15 | 32 | – | – | – | – | –
3 | O=C(c1ccc(OCCCc2cnc[nH]2)cc1)C1CC1 [CIPROXIFAN] | > 1000 | > 1000 | > 1000 | > 1000 | – | – | – | – | – | – | – | – | –
4 | O=C(c1ccc(OCCCN2CCCCC2)cc1)C1CC1 | > 1000 | > 1000 | > 1000 | > 1000 | – | – | 0 | -2 | -5 | -3 | – | – | –

Continued, in another order:

Row | Ki (Adenosine receptor A1 [1]) [nM] | Ki (Adenosine receptor A2a [2]) [nM] | Ki (Adenosine receptor A2b [3]) [nM] | Ki (Adenosine receptor A3) [nM] | Ki (Histamine H3 receptor) [nM] | inhibition ([4]; filed as antagonist) [%] | inhibition [5] [%] | inhibition [6] [%] | inhibition [4] [%] | inhibition (Adenosine receptor A2a [7]) [%] | EC50 (Adenosine receptor A1 [8]) [nM] | EC50 (Adenosine receptor A2b [9]) [nM] | SMILES | Activity (SH-SY5Y) [%]
5 | 12.6 | 6.24 | 47.5 | 199 | 17 | – | – | – | – | – | – | – | Nc1nc(-c2ccccc2)c2c(n1)-c1cc(OCCCN3CCCC3)ccc1C2=O | –
6 | 129 | 104 | 180 | 846 | 31 | – | – | – | – | – | – | – | Nc1nc(-c2ccccc2)c2c(n1)-c1ccc(OCCCN3CCCC3)cc1C2=O | –
7 | 18.7 | 4.85 | 58.1 | 231 | 4.5 | – | – | – | – | – | – | – | Nc1nc(-c2ccccc2)c2c(n1)-c1cc(OCCCN3CCCCC3)ccc1C2 | >75
8 | – | – | – | 430 | – | – | – | – | – | – | 48 | 230 | Nc1nc(-c2ccccc2)c2c(n1)-c1cc(OCCN3CCOCC3)ccc1C2=O | –
